From the supplement of paper PMC13380429

Tests used:
Conditions in all cases: 72 h
Vero E6 [1] = assay: drug sensitivity score (DSS) for viability; higher = more toxic; extreme values may be limits of the assay
U2OS [2] = assay: as above
Caco-2 [3] = assay: as above
Calu-3 [4] = assay: as above
HepG2 [5] = assay: as above
Vero E6 [6] = assay: cell viability relative to DMSO; higher = less toxic
U2OS [7] = assay: as above
Caco-2 [8] = assay: as above
Calu-3 [9] = assay: as above
HepG2 [10] = assay: as above
Vero E6 [11] = assay: relative viability EC50 (midpoint between 100% and the lowest measured viability); higher = less toxic
U2OS [12] = assay: as above
Caco-2 [13] = assay: as above
Calu-3 [14] = assay: as above
HepG2 [15] = assay: as above

O=C(O)c1cccnc1 [niacin]
drug sensitivity score (Vero E6 [1]): 0 | drug sensitivity score (U2OS [2]): 0 | drug sensitivity score (Caco-2 [3]): 0 | drug sensitivity score (Calu-3 [4]): 0 | drug sensitivity score (HepG2 [5]): 0 | cell viability (Vero E6 [6]; 1 nM): 99.4% | cell viability (Vero E6 [6]; 10 nM): 98.7% | cell viability (Vero E6 [6]; 100 nM): 96.3% | cell viability (Vero E6 [6]; 1000 nM): 91.1% | cell viability (Vero E6 [6]; 10000 nM): 101% | cell viability (U2OS [7]; 1 nM): 93.8% | cell viability (U2OS [7]; 10 nM): 98.2% | cell viability (U2OS [7]; 100 nM): 95.3% | cell viability (U2OS [7]; 1000 nM): 97.1% | cell viability (U2OS [7]; 10000 nM): 102% | cell viability (Caco-2 [8]; 1 nM): 91.6% | cell viability (Caco-2 [8]; 10 nM): 96.7% | cell viability (Caco-2 [8]; 100 nM): 94.2% | cell viability (Caco-2 [8]; 1000 nM): 103% | cell viability (Caco-2 [8]; 10000 nM): 103% | cell viability (Calu-3 [9]; 1 nM): 86.8% | cell viability (Calu-3 [9]; 10 nM): 103% | cell viability (Calu-3 [9]; 100 nM): 98.9% | cell viability (Calu-3 [9]; 1000 nM): 109% | cell viability (Calu-3 [9]; 10000 nM): 99.2% | cell viability (HepG2 [10]; 1 nM): 113% | cell viability (HepG2 [10]; 10 nM): 105% | cell viability (HepG2 [10]; 100 nM): 114% | cell viability (HepG2 [10]; 1000 nM): 97.9% | cell viability (HepG2 [10]; 10000 nM): 106% | relative viability EC50 (Vero E6 [11]): > 10 µM | relative viability EC50 (U2OS [12]): > 10 µM | relative viability EC50 (Caco-2 [13]): > 10 µM | relative viability EC50 (Calu-3 [14]): > 10 µM | relative viability EC50 (HepG2 [15]): > 10 µM

Cc1onc(-c2ccccc2)c1C(=O)N[C@@H]1C(=O)N2[C@@H]1SC(C)(C)[C@@H]2C(=O)O [oxacillin]
drug sensitivity score (Vero E6 [1]): 0 | drug sensitivity score (U2OS [2]): 0 | drug sensitivity score (Caco-2 [3]): 0 | drug sensitivity score (Calu-3 [4]): 0 | drug sensitivity score (HepG2 [5]): 0 | cell viability (Vero E6 [6]; 1 nM): 99.4% | cell viability (Vero E6 [6]; 10 nM): 87.2% | cell viability (Vero E6 [6]; 100 nM): 102% | cell viability (Vero E6 [6]; 1000 nM): 93.9% | cell viability (Vero E6 [6]; 10000 nM): 94% | cell viability (U2OS [7]; 1 nM): 100% | cell viability (U2OS [7]; 10 nM): 98.7% | cell viability (U2OS [7]; 100 nM): 98% | cell viability (U2OS [7]; 1000 nM): 98.9% | cell viability (U2OS [7]; 10000 nM): 108% | cell viability (Caco-2 [8]; 1 nM): 92.9% | cell viability (Caco-2 [8]; 10 nM): 93.3% | cell viability (Caco-2 [8]; 100 nM): 98.1% | cell viability (Caco-2 [8]; 1000 nM): 85.2% | cell viability (Caco-2 [8]; 10000 nM): 116% | cell viability (Calu-3 [9]; 1 nM): 92.6% | cell viability (Calu-3 [9]; 10 nM): 104% | cell viability (Calu-3 [9]; 100 nM): 102% | cell viability (Calu-3 [9]; 1000 nM): 99.1% | cell viability (Calu-3 [9]; 10000 nM): 96.2% | cell viability (HepG2 [10]; 1 nM): 89.9% | cell viability (HepG2 [10]; 10 nM): 102% | cell viability (HepG2 [10]; 100 nM): 91.3% | cell viability (HepG2 [10]; 1000 nM): 114% | cell viability (HepG2 [10]; 10000 nM): 108% | relative viability EC50 (Vero E6 [11]): > 10 µM | relative viability EC50 (U2OS [12]): > 10 µM | relative viability EC50 (Caco-2 [13]): > 10 µM | relative viability EC50 (Calu-3 [14]): > 10 µM | relative viability EC50 (HepG2 [15]): > 10 µM

O=C(O)c1nc(=O)[nH]c(=O)[nH]1 [oxonic-acid]
drug sensitivity score (Vero E6 [1]): 0 | drug sensitivity score (U2OS [2]): 0 | drug sensitivity score (Caco-2 [3]): 0 | drug sensitivity score (Calu-3 [4]): 0 | drug sensitivity score (HepG2 [5]): 0 | cell viability (Vero E6 [6]; 1 nM): 89.2% | cell viability (Vero E6 [6]; 10 nM): 63.8% | cell viability (Vero E6 [6]; 100 nM): 98.5% | cell viability (Vero E6 [6]; 1000 nM): 79.8% | cell viability (Vero E6 [6]; 10000 nM): 90.7% | cell viability (U2OS [7]; 1 nM): 102% | cell viability (U2OS [7]; 10 nM): 101% | cell viability (U2OS [7]; 100 nM): 99.6% | cell viability (U2OS [7]; 1000 nM): 102% | cell viability (U2OS [7]; 10000 nM): 106% | cell viability (Caco-2 [8]; 1 nM): 87.9% | cell viability (Caco-2 [8]; 10 nM): 76.3% | cell viability (Caco-2 [8]; 100 nM): 89.9% | cell viability (Caco-2 [8]; 1000 nM): 112% | cell viability (Caco-2 [8]; 10000 nM): 101% | cell viability (Calu-3 [9]; 1 nM): 94.6% | cell viability (Calu-3 [9]; 10 nM): 106% | cell viability (Calu-3 [9]; 100 nM): 105% | cell viability (Calu-3 [9]; 1000 nM): 110% | cell viability (Calu-3 [9]; 10000 nM): 108% | cell viability (HepG2 [10]; 1 nM): 105% | cell viability (HepG2 [10]; 10 nM): 103% | cell viability (HepG2 [10]; 100 nM): 97.4% | cell viability (HepG2 [10]; 1000 nM): 115% | cell viability (HepG2 [10]; 10000 nM): 101% | relative viability EC50 (Vero E6 [11]): > 10 µM | relative viability EC50 (U2OS [12]): > 10 µM | relative viability EC50 (Caco-2 [13]): > 10 µM | relative viability EC50 (Calu-3 [14]): > 10 µM | relative viability EC50 (HepG2 [15]): > 10 µM

CC(=O)Nc1ccc(O)cc1 [paracetamol]
drug sensitivity score (Vero E6 [1]): 0 | drug sensitivity score (U2OS [2]): 0 | drug sensitivity score (Caco-2 [3]): 0 | drug sensitivity score (Calu-3 [4]): 0 | drug sensitivity score (HepG2 [5]): 0.6 | cell viability (Vero E6 [6]; 1 nM): 97.9% | cell viability (Vero E6 [6]; 10 nM): 95.4% | cell viability (Vero E6 [6]; 100 nM): 102% | cell viability (Vero E6 [6]; 1000 nM): 92.5% | cell viability (Vero E6 [6]; 10000 nM): 102% | cell viability (U2OS [7]; 1 nM): 99.9% | cell viability (U2OS [7]; 10 nM): 101% | cell viability (U2OS [7]; 100 nM): 95.4% | cell viability (U2OS [7]; 1000 nM): 102% | cell viability (U2OS [7]; 10000 nM): 93.7% | cell viability (Caco-2 [8]; 1 nM): 91.7% | cell viability (Caco-2 [8]; 10 nM): 103% | cell viability (Caco-2 [8]; 100 nM): 94.7% | cell viability (Caco-2 [8]; 1000 nM): 98.2% | cell viability (Caco-2 [8]; 10000 nM): 98.8% | cell viability (Calu-3 [9]; 1 nM): 94.7% | cell viability (Calu-3 [9]; 10 nM): 96.6% | cell viability (Calu-3 [9]; 100 nM): 97.2% | cell viability (Calu-3 [9]; 1000 nM): 99.8% | cell viability (Calu-3 [9]; 10000 nM): 99% | cell viability (HepG2 [10]; 1 nM): 99.5% | cell viability (HepG2 [10]; 10 nM): 104% | cell viability (HepG2 [10]; 100 nM): 88.8% | cell viability (HepG2 [10]; 1000 nM): 94.3% | cell viability (HepG2 [10]; 10000 nM): 92.5% | relative viability EC50 (Vero E6 [11]): > 10 µM | relative viability EC50 (U2OS [12]): > 10 µM | relative viability EC50 (Caco-2 [13]): > 10 µM | relative viability EC50 (Calu-3 [14]): > 10 µM | relative viability EC50 (HepG2 [15]): > 10 µM

Oc1ccc(Cl)cc1 [parachlorophenol]
drug sensitivity score (Vero E6 [1]): 0 | drug sensitivity score (U2OS [2]): 0 | drug sensitivity score (Caco-2 [3]): 0 | drug sensitivity score (Calu-3 [4]): 0 | drug sensitivity score (HepG2 [5]): 0 | cell viability (Vero E6 [6]; 1 nM): 100% | cell viability (Vero E6 [6]; 10 nM): 101% | cell viability (Vero E6 [6]; 100 nM): 99.3% | cell viability (Vero E6 [6]; 1000 nM): 97.7% | cell viability (Vero E6 [6]; 10000 nM): 99.7% | cell viability (U2OS [7]; 1 nM): 98.5% | cell viability (U2OS [7]; 10 nM): 96.5% | cell viability (U2OS [7]; 100 nM): 97.2% | cell viability (U2OS [7]; 1000 nM): 95.4% | cell viability (U2OS [7]; 10000 nM): 102% | cell viability (Caco-2 [8]; 1 nM): 94.2% | cell viability (Caco-2 [8]; 10 nM): 91.5% | cell viability (Caco-2 [8]; 100 nM): 99.7% | cell viability (Caco-2 [8]; 1000 nM): 90.4% | cell viability (Caco-2 [8]; 10000 nM): 100% | cell viability (Calu-3 [9]; 1 nM): 102% | cell viability (Calu-3 [9]; 10 nM): 100% | cell viability (Calu-3 [9]; 100 nM): 98.9% | cell viability (Calu-3 [9]; 1000 nM): 91.2% | cell viability (Calu-3 [9]; 10000 nM): 104% | cell viability (HepG2 [10]; 1 nM): 108% | cell viability (HepG2 [10]; 10 nM): 99.1% | cell viability (HepG2 [10]; 100 nM): 90.9% | cell viability (HepG2 [10]; 1000 nM): 111% | cell viability (HepG2 [10]; 10000 nM): 98.4% | relative viability EC50 (Vero E6 [11]): > 10 µM | relative viability EC50 (U2OS [12]): > 10 µM | relative viability EC50 (Caco-2 [13]): > 10 µM | relative viability EC50 (Calu-3 [14]): > 10 µM | relative viability EC50 (HepG2 [15]): > 10 µM

CCCCCCCCCCCCCC[C@@H](O)[C@@H](O)[C@@H](N)CO [phytosphingosine]
drug sensitivity score (Vero E6 [1]): 0 | drug sensitivity score (U2OS [2]): 0 | drug sensitivity score (Caco-2 [3]): 0 | drug sensitivity score (Calu-3 [4]): 0 | drug sensitivity score (HepG2 [5]): 0 | cell viability (Vero E6 [6]; 1 nM): 98.7% | cell viability (Vero E6 [6]; 10 nM): 98.2% | cell viability (Vero E6 [6]; 100 nM): 95.9% | cell viability (Vero E6 [6]; 1000 nM): 111% | cell viability (Vero E6 [6]; 10000 nM): 95.2% | cell viability (U2OS [7]; 1 nM): 101% | cell viability (U2OS [7]; 10 nM): 100% | cell viability (U2OS [7]; 100 nM): 98.9% | cell viability (U2OS [7]; 1000 nM): 102% | cell viability (U2OS [7]; 10000 nM): 98.3% | cell viability (Caco-2 [8]; 1 nM): 115% | cell viability (Caco-2 [8]; 10 nM): 102% | cell viability (Caco-2 [8]; 100 nM): 87.3% | cell viability (Caco-2 [8]; 1000 nM): 113% | cell viability (Caco-2 [8]; 10000 nM): 99.5% | cell viability (Calu-3 [9]; 1 nM): 103% | cell viability (Calu-3 [9]; 10 nM): 101% | cell viability (Calu-3 [9]; 100 nM): 98.6% | cell viability (Calu-3 [9]; 1000 nM): 82.3% | cell viability (Calu-3 [9]; 10000 nM): 103% | cell viability (HepG2 [10]; 1 nM): 91% | cell viability (HepG2 [10]; 10 nM): 92.7% | cell viability (HepG2 [10]; 100 nM): 112% | cell viability (HepG2 [10]; 1000 nM): 100% | cell viability (HepG2 [10]; 10000 nM): 97.9% | relative viability EC50 (Vero E6 [11]): > 10 µM | relative viability EC50 (U2OS [12]): > 10 µM | relative viability EC50 (Caco-2 [13]): > 10 µM | relative viability EC50 (Calu-3 [14]): > 10 µM | relative viability EC50 (HepG2 [15]): > 10 µM
